Data: PubChem BioAssay AID2744 (NMMLSC, 2010)
Calls of active or inactive are those of the source.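 How the source made its calls: active means fitted half-maximal concentration for changing reporter fluorescence at or below a set limit; inactive means the rest.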

target: Citrate synthase, peroxisomal (Saccharomyces cerevisiae (strain ATCC 204508 / S288c)) (UniProt P08679); assay: yeast TOR pathway CIT2-GFP reporter potency – flow cytometry, MLPCN hits, dose response (AID 2744); conditions: S. cerevisiae CIT2-GFP strain, 3 h, at 33 µM (top of the series)
Sequence (P08679 whole entry, looked up): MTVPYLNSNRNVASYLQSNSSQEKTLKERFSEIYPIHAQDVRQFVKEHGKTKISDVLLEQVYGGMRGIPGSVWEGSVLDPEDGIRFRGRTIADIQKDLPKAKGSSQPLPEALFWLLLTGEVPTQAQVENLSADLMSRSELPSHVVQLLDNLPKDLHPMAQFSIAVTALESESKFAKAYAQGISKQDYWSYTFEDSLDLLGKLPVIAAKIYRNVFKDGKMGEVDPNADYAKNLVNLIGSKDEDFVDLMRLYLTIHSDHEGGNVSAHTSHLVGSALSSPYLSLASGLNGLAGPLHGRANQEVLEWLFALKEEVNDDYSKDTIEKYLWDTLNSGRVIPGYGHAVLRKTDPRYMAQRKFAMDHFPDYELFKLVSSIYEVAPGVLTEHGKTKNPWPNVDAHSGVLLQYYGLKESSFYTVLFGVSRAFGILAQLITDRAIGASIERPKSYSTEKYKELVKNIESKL

Row | SMILES | GFP fluorescence, higher = induction
1 | O=C(NNC(=S)NC(=O)c1ccco1)c1ccc(F)cc1 | inactive
2 | CCn1c(/C=C/c2ccc([N+](=O)[O-])o2)nc2ccccc2c1=O | inactive
3 | Cc1cc(=O)oc2cc(Oc3ccc([N+](=O)[O-])cc3C(F)(F)F)ccc12 | inactive
4 | CC(C)(C)C1C/C(=C/c2ccccn2)C(=O)/C(=C/c2ccccn2)C1 (configuration not stated) | inactive
5 | Cc1ccc2c(c1)c(/C=C/c1cc[n+](C)cc1)c(C)n2C | inactive
6 | O=C(/C=C/c1cc(Br)ccc1O)c1ccco1 | inactive
7 | Cc1ccc(S(=O)(=O)Cc2cc(F)c([N+](=O)[O-])cc2[N+](=O)[O-])cc1 | inactive
8 | COc1ccc(OCC(=O)NNC(=S)NC(=O)C2CCCCC2)cc1 | inactive
9 | Cc1ccc(NC(=O)c2cc(N3C(=O)C=CC3=O)ccc2N2CCOCC2)cc1Cl | inactive
10 | CC(=O)c1ccc(N2CCN(C(=O)c3ccc(Br)cc3)CC2)c(F)c1 | inactive
11 | Cc1[nH][nH]c(=O)c1C(c1ccc(-c2ccc(Cl)cc2)o1)c1c(C)[nH][nH]c1=O | inactive
12 | CCCCS(=O)(=O)/C=C\C=C/S(=O)(=O)CCCC | inactive
13 | O=C(NC(=S)NNC(=O)c1cnccn1)c1ccc(F)cc1 | inactive
14 | C#CCOc1c(Br)cc(/C=C2/C(=O)ON=C2C)cc1OC | inactive
15 | Cc1ccc2nc(/C(C#N)=C/c3ccc(O)c(O)c3)[nH]c2c1 | inactive
16 | c1ccc(-c2cccc(-c3ccccn3)n2)nc1 | inactive
17 | O=C1NC(=O)C(=Cc2ccc(-c3ccc(Cl)cc3)o2)C(=O)N1 | inactive
18 | Cc1ccsc1/C=N/Nc1ncc(Cl)cc1Cl | inactive
19 | O=C1C2C3C=CC(CO)(O3)C2C(=O)N1c1ccccc1-c1ccccc1 (configuration not stated) | inactive
20 | COc1ccc([N+](=O)[O-])c(S(=O)(=O)c2ccccc2)n1 | inactive
21 | C#CCOCCOCCOCCNc1nc(N2CCN(C(=O)CCCCCCCCCCNC(=O)[C@@H](CCC(=O)O)n3cc(CCCCCN)nn3)CC2)nc(N2CCN(C(=O)CCCCCCCCCCNC(=O)[C@H](CCCCN)n3cc(C[C@@H](C)CC)nn3)CC2)n1 | inactive
22 | CC(=O)Oc1cccc(N2C(=O)c3cccc4c([N+](=O)[O-])ccc(c34)C2=O)c1 | inactive

Row | SMILES | GFP fluorescence, higher = induction
23 | O=C1N(c2ccccc2C(F)(F)F)OC1(Cc1ccccc1)c1ccccc1 (configuration not stated) | inactive
24 | O=[N+]([O-])c1ccc(O)c2ncccc12 | inactive
25 | N#C/C(=C\c1ccccn1)c1nc2ccccc2s1 | inactive
26 | O=C(Nc1ccc(NC(=O)c2cc3ccccc3o2)cc1)c1ccco1 | inactive
27 | COc1ccc2c(c1)c1nnc(SC)nc1n2C | inactive
28 | O=C(Oc1cccc2cccnc12)c1ccc(Br)o1 | inactive
29 | CCCN1CCc2c(sc(NC(=S)NC(=O)c3ccccc3)c2C#N)C1 | inactive
30 | O=C(OCC(=O)N1CCN(C(=O)c2ccco2)CC1)c1cc(-c2ccc(Cl)c(Cl)c2Cl)nc2ccccc12 | inactive
31 | O=C(COc1ccccc1)N1CCN(c2ncnc3c2cnn3-c2ccccc2)CC1 | inactive
32 | Cc1cccc(N2C(=O)C(Cl)=C(Nc3c(C)n(C)n(-c4ccccc4)c3=O)C2=O)c1C | inactive
33 | O=C(/C=C/c1ccccc1)NC(=S)NNC(=O)Cc1cccs1 | inactive
34 | CCOC(=O)c1cc(-c2ccc(/C=C3/C(=O)NC(=O)C(C#N)=C3C)o2)ccc1Cl | inactive
35 | Cc1cc(C)c2c(c1)/C(=C/C(=O)c1ccc(Br)s1)C(=O)N2 | inactive
36 | COc1ccccc1C(=O)NNC(=S)NC(=O)c1ccco1 | inactive
37 | CC(Oc1cccc(Cl)c1)C(=O)Nc1nc(-c2ccccn2)cs1 (configuration not stated) | inactive
38 | COc1ccc(-c2cc(C(F)(F)F)nc(S(C)(=O)=O)n2)cc1 | inactive
39 | O=C(NC(=S)NNC(=O)[C@H]1C[C@@H]1c1ccccc1)c1cccc(F)c1 | inactive
40 | O=C(O)C1Sc2[nH]c(=O)sc2C2c3cc(Br)ccc3OC(=O)C12 (configuration not stated) | inactive
41 | COc1cc(/C=C/c2ccc3c(Br)cc(Br)c(O)c3n2)ccc1O | inactive
42 | O=C(NNC(=S)NC(=O)C12CC3CC(CC(C3)C1)C2)c1ccncc1 | inactive
43 | O=C(OCn1ncc(Br)c(Br)c1=O)c1c(F)cccc1F | inactive
44 | COc1ccc(NC2=C(Cl)C(=O)N(CCc3ccccc3)C2=O)c(OC)c1 | inactive

Row | SMILES | GFP fluorescence, higher = induction
45 | O=C(OCC(=O)N1CCN(C(=O)c2ccco2)CC1)c1cc(-c2ccccc2)nc2ccccc12 | inactive
46 | O=C(OCn1ncc(Br)c(Br)c1=O)c1ccc(F)cc1 | inactive
47 | Cc1ccc(C(=O)NNC(=S)NC(=O)c2ccco2)cc1 | inactive
48 | CN(C)c1ccc(N=Cc2nc(-c3ccccc3)oc2OC(=O)c2cccc(Cl)c2)cc1 | inactive
49 | CCCOc1ccc(C(=O)NNC(=S)NC(=O)c2ccco2)cc1 | inactive
50 | C/C(=N\NC(=O)c1cccc(Br)c1)c1ccccn1 | inactive
51 | CCOC(=O)/C(=C\c1cn(C)c2ccccc12)[N+](=O)[O-] | inactive
52 | O=C(/C=C/c1ccccc1Cl)c1ccccc(=O)c1O | inactive
53 | O=C1ON=C(c2ccccc2)/C1=C/c1ccco1 | inactive
54 | O=C(NC(=S)Nc1ccc2oc(=O)ccc2c1)c1cccc(Cl)c1 | inactive
55 | CC1=C(C)/C(=N\OS(=O)(=O)c2ccccc2)C=CC1=O | inactive
56 | COc1cc(N=c2ssnc2Cl)cc(OC)c1 | inactive
57 | O=C(c1ccccn1)c1conc1C(=O)c1ccc(Br)cc1 | inactive
58 | Cc1ccc(C(=O)Oc2oc(-c3ccccc3)nc2C=Nc2ccc(N(C)C)cc2)cc1 | inactive
59 | COc1ccc(C(=O)/C=C2/C(=O)Nc3ccccc32)cc1OC | inactive
60 | Cc1cccc(N=Nc2ccc(O)c3ncccc23)c1 | inactive
61 | Oc1c(I)cc(I)c2cccnc12 | inactive
62 | CC[C@]1(c2ccccc2C)ON(c2ccccc2C(F)(F)F)C1=O | inactive
63 | CCCCc1ccc(/C=C2/C(=O)ON=C2c2ccccc2)s1 | inactive
64 | Cc1cccc(OCCN2CSC(=S)N(C)C2)c1 | inactive
65 | CN(C)c1ccc(/C=C/c2cc[n+](C)cc2)cc1 | inactive
66 | COc1ccc(CCNC2=C(Cl)C(=O)N(CCc3ccc(OC)c(OC)c3)C2=O)cc1OC | inactive

same assay, conditions: S. cerevisiae CIT2-GFP strain, flow cytometry fluorescence, 3 h

Row | SMILES | EC50 [µM]
67 | N/C(=N\OC(=O)c1ccccc1Cl)c1ccc(Cl)cc1 | 6.14
